Experiments:
Type in all cases: in vivo
[1] = tested on: redroot pigweed (Amaranthus retroflexus); assay: Test G Pre-Emergence Protocol; conditions: Amaranthus retroflexus, pre-emergence, 312 h, evaluated after 13 days; for pest or weed control at 15.625 g/ha: 15.625 g ai/ha; for pest or weed control at 15.625 g/ha / pest or weed control at 250 g/ha: read-out: Pigweed, Redroot damage rating (100=total damage to plant; 0=no damage to plant); for pest or weed control at 62.5 g/ha: 62.5 g ai/ha, 100=total damage to plant, 0=no damage to plant, read-out: Pigweed, Redroot damage rating; for pest or weed control at 250 g/ha: 250 g ai/ha
Outline: (§1)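 One day after sowing, pots are treated with a spray of test compound formulated in acetone/water 50:50 plus 0.5% Tween 20, giving 15.625, 62.5 or 250 g/ha. Evaluation on a 0–100 damage scale follows 13 days of glasshouse growth.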

corn (Zea mays) [2] = assay: Test G Pre-Emergence Protocol; conditions: Zea mays, pre-emergence, 312 h, evaluated after 13 days; for plant injury at 15.625 g/ha: 15.625 g ai/ha; for plant injury at 15.625 g/ha / plant injury at 250 g/ha: read-out: Corn damage rating (100=total damage to plant; 0=no damage to plant); for plant injury at 62.5 g/ha: 62.5 g ai/ha, 100=total damage to plant, 0=no damage to plant, read-out: Corn damage rating; for plant injury at 250 g/ha: 250 g ai/ha
Outline: as §1

[3] = tested on: velvetleaf (Abutilon theophrasti); assay: Test G Pre-Emergence Protocol; conditions: Abutilon theophrasti, pre-emergence, 312 h, evaluated after 13 days; for pest or weed control at 15.625 g/ha: 15.625 g ai/ha; for pest or weed control at 15.625 g/ha / pest or weed control at 250 g/ha: read-out: Velvetleaf damage rating (100=total damage to plant; 0=no damage to plant); for pest or weed control at 62.5 g/ha: 62.5 g ai/ha, 100=total damage to plant, 0=no damage to plant, read-out: Velvetleaf damage rating; for pest or weed control at 250 g/ha: 250 g ai/ha
Outline: as §1

[4] = tested on: ivy-leaved morning glory (Ipomoea hederacea); assay: Test G Pre-Emergence Protocol; conditions: Ipomoea, pre-emergence, 312 h, evaluated after 13 days; for pest or weed control at 15.625 g/ha: 15.625 g ai/ha; for pest or weed control at 15.625 g/ha / pest or weed control at 250 g/ha: read-out: Morningglory, Ivy-leaved damage rating (100=total damage to plant; 0=no damage to plant); for pest or weed control at 62.5 g/ha: 62.5 g ai/ha, 100=total damage to plant, 0=no damage to plant, read-out: Morningglory, Ivy-leaved damage rating; for pest or weed control at 250 g/ha: 250 g ai/ha
Outline: as §1

[5] = tested on: giant foxtail (Setaria faberi); assay: Test G Pre-Emergence Protocol; conditions: Setaria faberi, pre-emergence, 312 h, evaluated after 13 days; for pest or weed control at 15.625 g/ha: 15.625 g ai/ha; for pest or weed control at 15.625 g/ha / pest or weed control at 250 g/ha: read-out: Foxtail, Giant damage rating (100=total damage to plant; 0=no damage to plant); for pest or weed control at 62.5 g/ha: 62.5 g ai/ha, 100=total damage to plant, 0=no damage to plant, read-out: Foxtail, Giant damage rating; for pest or weed control at 250 g/ha: 250 g ai/ha
Outline: as §1

[6] = tested on: barnyardgrass (Echinochloa crus-galli); assay: Test G Pre-Emergence Protocol; conditions: Echinochloa crus-galli, pre-emergence, 312 h, evaluated after 13 days; for pest or weed control at 15.625 g/ha: 15.625 g ai/ha; for pest or weed control at 15.625 g/ha / pest or weed control at 250 g/ha: read-out: Barnyardgrass damage rating (100=total damage to plant; 0=no damage to plant); for pest or weed control at 62.5 g/ha: 62.5 g ai/ha, 100=total damage to plant, 0=no damage to plant, read-out: Barnyardgrass damage rating; for pest or weed control at 250 g/ha: 250 g ai/ha
Outline: as §1

[7] = tested on: redroot pigweed (Amaranthus retroflexus); assay: Test G Post-Emergence Protocol; conditions: Amaranthus retroflexus, post-emergence, 312 h, read-out: Pigweed, Redroot damage rating; for pest or weed control at 15.625 g/ha: 15.625 g ai/ha, evaluated after 13 days (100=total damage to plant; 0=no damage to plant); for pest or weed control at 62.5 g/ha: 62.5 g ai/ha; for pest or weed control at 62.5 g/ha / pest or weed control at 250 g/ha: evaluated after 13 days, 100=total damage to plant, 0=no damage to plant; for pest or weed control at 250 g/ha: 250 g ai/ha
Outline: (§2)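 Scores run 0 (no damage) to 100 (total damage) and were taken 13 days after spraying. Plants had been raised in pots for 8 days under glasshouse control (24/16 °C, 14 h photoperiod, 65% humidity) and then treated at 15.625, 62.5 or 250 g/ha.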

corn (Zea mays) [8] = assay: Test G Post-Emergence Protocol; conditions: Zea mays, post-emergence, 312 h, read-out: Corn damage rating; for plant injury at 15.625 g/ha: 15.625 g ai/ha, evaluated after 13 days (100=total damage to plant; 0=no damage to plant); for plant injury at 62.5 g/ha: 62.5 g ai/ha; for plant injury at 62.5 g/ha / plant injury at 250 g/ha: evaluated after 13 days, 100=total damage to plant, 0=no damage to plant; for plant injury at 250 g/ha: 250 g ai/ha
Outline: as §2

[9] = tested on: velvetleaf (Abutilon theophrasti); assay: Test G Post-Emergence Protocol; conditions: Abutilon theophrasti, post-emergence, 312 h, read-out: Velvetleaf damage rating; for pest or weed control at 15.625 g/ha: 15.625 g ai/ha, evaluated after 13 days (100=total damage to plant; 0=no damage to plant); for pest or weed control at 62.5 g/ha: 62.5 g ai/ha; for pest or weed control at 62.5 g/ha / pest or weed control at 250 g/ha: evaluated after 13 days, 100=total damage to plant, 0=no damage to plant; for pest or weed control at 250 g/ha: 250 g ai/ha
Outline: as §2

[10] = tested on: ivy-leaved morning glory (Ipomoea hederacea); assay: Test G Post-Emergence Protocol; conditions: Ipomoea, post-emergence, 312 h, read-out: Morningglory, Ivy-leaved damage rating; for pest or weed control at 15.625 g/ha: 15.625 g ai/ha, evaluated after 13 days (100=total damage to plant; 0=no damage to plant); for pest or weed control at 62.5 g/ha: 62.5 g ai/ha; for pest or weed control at 62.5 g/ha / pest or weed control at 250 g/ha: evaluated after 13 days, 100=total damage to plant, 0=no damage to plant; for pest or weed control at 250 g/ha: 250 g ai/ha
Outline: as §2

[11] = tested on: giant foxtail (Setaria faberi); assay: Test G Post-Emergence Protocol; conditions: Setaria faberi, post-emergence, 312 h, read-out: Foxtail, Giant damage rating; for pest or weed control at 15.625 g/ha: 15.625 g ai/ha, evaluated after 13 days (100=total damage to plant; 0=no damage to plant); for pest or weed control at 62.5 g/ha: 62.5 g ai/ha; for pest or weed control at 62.5 g/ha / pest or weed control at 250 g/ha: evaluated after 13 days, 100=total damage to plant, 0=no damage to plant; for pest or weed control at 250 g/ha: 250 g ai/ha
Outline: as §2

[12] = tested on: barnyardgrass (Echinochloa crus-galli); assay: Test G Post-Emergence Protocol; conditions: Echinochloa crus-galli, post-emergence, 312 h, read-out: Barnyardgrass damage rating; for pest or weed control at 15.625 g/ha: 15.625 g ai/ha, evaluated after 13 days (100=total damage to plant; 0=no damage to plant); for pest or weed control at 62.5 g/ha: 62.5 g ai/ha; for pest or weed control at 62.5 g/ha / pest or weed control at 250 g/ha: evaluated after 13 days, 100=total damage to plant, 0=no damage to plant; for pest or weed control at 250 g/ha: 250 g ai/ha
Outline: as §2

Structure (SMILES) | pest or weed control at 15.625 g/ha [1] | pest or weed control at 62.5 g/ha [1] | pest or weed control at 250 g/ha [1] | plant injury at 15.625 g/ha (corn (Zea mays) [2]) | plant injury at 62.5 g/ha (corn (Zea mays) [2]) | plant injury at 250 g/ha (corn (Zea mays) [2]) | pest or weed control at 15.625 g/ha [3] | pest or weed control at 62.5 g/ha [3] | pest or weed control at 250 g/ha [3] | pest or weed control at 15.625 g/ha [4] | pest or weed control at 62.5 g/ha [4] | pest or weed control at 250 g/ha [4] | pest or weed control at 15.625 g/ha [5] | pest or weed control at 62.5 g/ha [5] | pest or weed control at 250 g/ha [5] | pest or weed control at 15.625 g/ha [6] | pest or weed control at 62.5 g/ha [6] | pest or weed control at 250 g/ha [6] | pest or weed control at 15.625 g/ha [7] | pest or weed control at 62.5 g/ha [7] | also measured
CN1C[C@H](c2cccc(Cl)c2)[C@@H](C(=O)Nc2cnccc2C(F)(F)F)C1=O (racemic) [Compound 1772] | 0% | 0% | 10% | 0% | 0% | 60% | 0% | 0% | 40% | 0% | 0% | 60% | 30% | 80% | 90% | 0% | 10% | 80% | 0% | 0% | pest or weed control at 250 g/ha [7]: 10%; plant injury at 15.625 g/ha (corn (Zea mays) [8]): 0%; plant injury at 62.5 g/ha (corn (Zea mays) [8]): 0%; plant injury at 250 g/ha (corn (Zea mays) [8]): 60%; pest or weed control at 15.625 g/ha [9]: 0%; pest or weed control at 62.5 g/ha [9]: 0%; pest or weed control at 250 g/ha [9]: 30%; pest or weed control at 15.625 g/ha [10]: 0%; pest or weed control at 62.5 g/ha [10]: 30%; pest or weed control at 250 g/ha [10]: 50%; pest or weed control at 15.625 g/ha [11]: 10%; pest or weed control at 62.5 g/ha [11]: 60%; pest or weed control at 250 g/ha [11]: 80%; pest or weed control at 15.625 g/ha [12]: 0%; pest or weed control at 62.5 g/ha [12]: 0%; pest or weed control at 250 g/ha [12]: 30%
CN1C[C@H](c2cccc(C(C)(C)C#N)c2)[C@@H](C(=O)Nc2ccccc2S(C)(=O)=O)C1=O (racemic) [Compound 1784] | 0% | 0% | 0% | 0% | 0% | 0% | 0% | 0% | 0% | 0% | 0% | 10% | 10% | 0% | 40% | 0% | 10% | 10% | 0% | 0% | pest or weed control at 250 g/ha [7]: 0%; plant injury at 15.625 g/ha (corn (Zea mays) [8]): 0%; plant injury at 62.5 g/ha (corn (Zea mays) [8]): 0%; plant injury at 250 g/ha (corn (Zea mays) [8]): 0%; pest or weed control at 15.625 g/ha [9]: 0%; pest or weed control at 62.5 g/ha [9]: 0%; pest or weed control at 250 g/ha [9]: 0%; pest or weed control at 15.625 g/ha [10]: 0%; pest or weed control at 62.5 g/ha [10]: 0%; pest or weed control at 250 g/ha [10]: 0%; pest or weed control at 15.625 g/ha [11]: 0%; pest or weed control at 62.5 g/ha [11]: 0%; pest or weed control at 250 g/ha [11]: 0%; pest or weed control at 15.625 g/ha [12]: 0%; pest or weed control at 62.5 g/ha [12]: 0%; pest or weed control at 250 g/ha [12]: 0%
CN1C[C@H](c2cccc(C(F)(F)F)c2)[C@@H](C(=O)Nc2ccc(O)cc2F)C1=O (racemic) [Compound 1785] | 0% | 0% | 20% | 0% | 0% | 0% | 0% | 0% | 0% | 0% | 0% | 0% | 0% | 0% | 10% | 0% | 0% | 0% | 0% | 0% | pest or weed control at 250 g/ha [7]: 0%; plant injury at 15.625 g/ha (corn (Zea mays) [8]): 0%; plant injury at 62.5 g/ha (corn (Zea mays) [8]): 0%; plant injury at 250 g/ha (corn (Zea mays) [8]): 0%; pest or weed control at 15.625 g/ha [9]: 0%; pest or weed control at 62.5 g/ha [9]: 0%; pest or weed control at 250 g/ha [9]: 0%; pest or weed control at 15.625 g/ha [10]: 0%; pest or weed control at 62.5 g/ha [10]: 0%; pest or weed control at 250 g/ha [10]: 0%; pest or weed control at 15.625 g/ha [11]: 0%; pest or weed control at 62.5 g/ha [11]: 0%; pest or weed control at 15.625 g/ha [12]: 0%; pest or weed control at 62.5 g/ha [12]: 0%; pest or weed control at 250 g/ha [12]: 0%

Reference: patent US12077503B2, “Substituted cyclic amides and their use as herbicides” (FMC CORPORATION, priority 2015, dated 2024)
